Experiments:
alpha human thrombin [1] = biological target: T1, alpha human thrombin (Homo sapiens, UniProt P00734); experiment: Inhibition constant (Ki) against alpha human thrombin; format: biochemical
T1 construct: alpha human thrombin

mice = conditions: mouse, in vivo, iv
Method: The toxicity of H-D-Phe-Pro-Arg-CN × 2HCOOH […] in an animal model. The test substance was administered i.v. to mice. Clinically detectable pathological findings were found at and above a dose of 50 mg/kg. The dose for a therapeutic effect ought to be about 1-4 mg/kg.

alpha human thrombin [2] = biological target: T1, alpha human thrombin; experiment: Determination of the thrombin time (concentration doubling the thrombin time) in standard human plasma; format: biochemical; conditions: pH 7.6, 37° C., alpha human thrombin 3.0 IU/ml
Method: The activity of the substances prepared as in Examples 1, 2 or 3 was ascertained by determination of the thrombin time. This entailed the concentration (in μmol/l) which doubled the thrombin time being ascertained.
50 μl of inhibitor solution of various concentrations, 50 μl of standard human plasma and 100 μl of diethylbarbituric acid/sodium acetate buffer, pH 7.6, were incubated at 37° C. for 45 seconds and 100 μl of alpha human thrombin (3.0 IU/ml) were added. The tests were carried out on a Schnitger & Gross apparatus for determination of the thrombin time.

Row | Compound | Ki (alpha human thrombin [1]) [nM] | Dose at and above which clinically detectable pathological findings were found (mice) [mg/kg] | Doubling of the thrombin time at concentration (final conc.) (alpha human thrombin [2]) [µmol/L]
1 | N#C[C@H](CCCNC(=N)N)NC(=O)[C@@H]1CCCN1C(=O)[C@H](N)Cc1ccccc1.O=CO.O=CO [H-D-Phe-Pro-Arg-CN × 2HCOOH] | 600 | ≥ 50 | 
2 | N#CC(CCCNC(=N)N)NC(=O)[C@@H]1CCCN1C(=O)[C@@H](Cc1ccccc1)NC(=O)OCC1c2ccccc2-c2ccccc21 (stereo partly drawn) [Example 2, N(alpha)-Fmoc-D-Phenylalanyl-L-prolyl-L-(1-amino-4-guanidino)valeronitrile] |  |  | 3.66
3 | CC(C)(C)OC(=O)N[C@H](Cc1ccccc1)C(=O)N1CCC[C@H]1C(=O)NC(C#N)CCCNC(=N)N (stereo partly drawn) [Example 1, N(alpha)-Boc-D-Phenylalanyl-L-prolyl-L-(1-amino-4-guanidino)valeronitrile] |  |  | 3.66
4 | N#CC(CCCNC(=N)N)NC(=O)[C@@H]1CCCN1C(=O)[C@H](N)Cc1ccccc1.O=C(O)C(F)(F)F.O=C(O)C(F)(F)F (stereo partly drawn) [Example 3, H-D-Phenylalanyl-L-prolyl-L-(1-amino-4-guanidino)valeronitrile ditrifluoroacetate] |  |  | 1.1
